Active and inactive are the calls of the source. The calls are words filed in the database; no cut-off is given here.
Assays:
PC-3 [1] = assay: Antitumour activity against human PC-3 cells xenografted in BALB/c-NU mouse assessed as reduction in tumour growth at 12.5 mg/kg, IG qd measured after 21 days relative to control; type: functional; parameters: scale not given: the % may be the effect or the level left; settings: time 21 day
PC-3 [2] = assay: Induction of apoptosis in human PC-3 cells assessed as late apoptotic cells at 100 nM measured after 72 hrs by Annexin V-FITC/propidium iodide staining based flow cytometry method (reference value: 1.01 %); type: functional
PC-3 [3] = assay: Induction of ROS generation in human PC-3 cells assessed as intracellular ROS level at 500 nM measured after 48 hrs by DCFH-DA staining based flowcytometry method (reference value: 55.2 %); type: functional
DU-145 [4] = assay: Induction of apoptosis in human DU-145 cells assessed as increased cleaved caspase 9/3 at 0.5 to 2 uM measured by Western blot assay; type: functional, cell-based; settings: dose 0.5-2 µM
[5] = Toxicity in C57BL/6 mouse assessed as change in body weight at 2 mg/kg, IG measured after 2 weeks; type: organism-based; settings: in vivo, po, 336 h
DU-145 [6] = assay: Induction of ROS generation in human DU-145 cells assessed as intracellular ROS level at 1.5 uM measured after 48 hrs by DCFH-DA staining based flowcytometry method (reference value: 52 %); type: functional
PC-3 [7] = assay: Induction of cell cycle arrest in human PC-3 cells assessed as accumulation of cells in G1/S phase at 500 nM measured after 48 hrs by propidium iodide staining based flowcytometry method (reference value: 19.23%); type: functional
PC-3 [8] = assay: Induction of apoptosis in human PC-3 cells assessed as increased cleaved caspase 9/3 expression at 25 to 100 nM measured by Western blot assay; type: functional, cell-based; settings: dose 25-100 nM
DU-145 [9] = assay: Activation of MAPK signaling in human DU-145 cells assessed as increase in phosphorylated p38 (Thr 180/Tyr 182) at 125 to 500 nM measured by Western blot assay; type: cell-based; settings: filed as activator, dose 125-500 nM
DU-145 [10] = assay: Induction of apoptosis in human DU-145 cells assessed as viable cells at 2 uM measured after 72 hrs by Annexin V-FITC/propidium iodide staining based flow cytometry method (reference value: 96.3 %); type: functional; settings: read-out: Activity
PC-3 [11] = assay: Induction of ROS generation in human PC-3 cells assessed as increase in intracellular ROS level measured after 48 hrs by DCFH-DA staining based flowcytometry method; type: functional, cell-based; settings: dose 25-100 nM
PC-3 [12] = assay: Induction of apoptosis in human PC-3 cells assessed as increase in PARP expression at 25 to 100 nM measured by Western blot assay; type: functional, cell-based; settings: dose 25-100 nM
[13] = Toxicity in C57BL/6 mouse assessed as effect on liver at 2 mg/kg, IG measured after 2 weeks by hematoxylin and eosin staining based imaging analysis; type: organism-based; settings: in vivo, po, 336 h
DU-145 [14] = assay: Activation of MAPK signaling in human DU-145 cells assessed as increase in phosphorylated ERK 1/2 (Thr 202/Tyr 204) at 125 to 500 nM measured by Western blot assay; type: cell-based; settings: filed as activator, dose 125-500 nM
PC-3 [15] = assay: Activation of MAPK signaling in human PC-3 cells assessed as increase in phosphorylated p38 (Thr 180/Tyr 182) at 125 to 500 nM measured by Western blot assay; type: cell-based; settings: filed as activator, dose 125-500 nM
DU-145 [16] = assay: Induction of apoptosis in human DU-145 cells assessed as late apoptotic cells at 1 uM measured after 72 hrs by Annexin V-FITC/propidium iodide staining based flow cytometry method (reference value: 1.77 %); type: functional
PC-3 [17] = assay: Activation of MAPK signaling in human PC-3 cells assessed as increase in phosphorylated ERK 1/2 (Thr 202/Tyr 204) at 125 to 500 nM measured by Western blot assay; type: cell-based; settings: filed as activator, dose 125-500 nM
DU-145 [18] = assay: Induction of apoptosis in human DU-145 cells assessed as viable cells at 0.5 uM measured after 72 hrs by Annexin V-FITC/propidium iodide staining based flow cytometry method (reference value: 96.3 %); type: functional; settings: read-out: Activity
DU-145 [19] = assay: Induction of apoptosis in human DU-145 cells assessed as necrotic cells at 2 uM measured after 72 hrs by Annexin V-FITC/propidium iodide staining based flow cytometry method (reference value: 1.13 %); type: functional

SMILES: Cc1ccc(/C=N/NC(=S)Nc2ccc(C(=O)NCCc3c(C)[nH]c4ccccc34)cc2)nc1
- Activity (PC-3 [1]): 53.6%
- Activity (PC-3 [2]): 56.2%
- Activity (PC-3 [3]): 98.9%
- Activity (DU-145 [4]): Active
- Activity [5]: Non-Toxic
- Activity (DU-145 [6]): 71.3%
- Activity (PC-3 [7]): 49.02%
- Activity (PC-3 [8]): Active
- Activity (DU-145 [9]): Active
- viability at 2 µM (DU-145 [10]): 43.8%
- Activity (PC-3 [11]): Dose-dependent effect
- Activity (PC-3 [12]): Active
- Activity [13]: Non-Toxic
- Activity (DU-145 [14]): Active
- Activity (PC-3 [15]): Active
- Activity (DU-145 [16]): 22.5%
- Activity (PC-3 [17]): Active
- viability at 0.5 µM (DU-145 [18]): 90.2%
- Activity (DU-145 [19]): 7.23%

From ChEMBL document CHEMBL4732091, “Design, synthesis and biological evaluation of novel thiosemicarbazone-indole derivatives targeting prostate cancer cells” (Eur J Med Chem, 2021)
